Source: US20230133037A1, “EXTENDED RELEASE GASTRORETENTIVE FORMULATION AGAINST HELICOBACTER PYLORI” (SOLSTAR PHARMA, priority 2019, published 2023)
Values after ≈ are worked out from the molar mass of the structure shown. Like-named read-outs stand apart in the source and are kept apart here. Blank lines part the entries; values can stand above or below the compound they belong to.

Columns and labels:
H. pylori PremSS1 strain = test: In vivo test of anti-Helicobacter pylori activities; design: species or system C57BL/6 mice; details: ARTE/SG 40, Nacinn 40, Amoxicillin 30 mg/kg
Protocol: C57BL/6 mice with SPF («specific pathogen free») status, were housed at the A2 pet store at the University of Bordeaux, in an acclimatization room for 1 week and then transferred to zone of experimentation where the project was conducted.
The H. pylori PremSS1 strain (supplied by Dr Anne Mueller, University of Zurich) was used. The functionality of the cagPAl island was verified in vitro in a coculture model with the gastric epithelial line AGS: induction of a so-called «hummingbird» phenotype.
The mice were force-fed at 6 weeks of age with the H. pylori premSS1 strain. The gavages were carried out 3 consecutive days, with a rich suspension of bacteria (2 to 3 dishes of rich culture for 5 mice). […]
The dishes were incubated at 35° C. in a microaerobic atmosphere and H. pylori was identified by its phenotypic and biochemical characteristics (morphology, urease test, oxidase test). The dishes were read after at least 5 days of incubation. […]
Quantitative PCR: the presence of H. pylori DNA and mouse housekeeping genes is quantified in the extracts by quantitative PCR in real time, by detecting the fluorescence emitted by the neo PCR products formed using Sybr Green™. […]

[1] = Solubility in simulated gastric fluid; assay type: physicochemical; details: 0.5 g in 10 mL SGF pH 1.2, 36.5° C.; for appearance of the solution in SGF after 2 hours: 100 rev/min
Protocol: All solutions are incubated at 36.5° C. under mild shaking with (100 rev/min) in a G24 Environmental Incubator Shaker (New Brunswick Scientific Co., N.J., USA).

[2] = Water solubility / behaviour in solution; assay type: physicochemical
E. coli = test: Antibacterial activity of artesunate with different treatments; assay type: cell-based; details: 0.2% w/w in medium, start 1.0×10^6 CFU/mL, 18 h at 36.5° C.
Protocol: Practically, a bacterial cryovial is thawed and cultured twice during 18 h at 36.5° C. in 9 mL of broth for activation.

H. pylori strains = test: Minimum inhibitory concentration, agar dilution method; assay type: cell-based; details: Helicobacter pylori; about 59 strains, 48 h at 37° C., microaerobic
[3] = design: species or system CD-1 mice; details: CD-1, mouse, in vivo
Protocol: The in vivo study was carried out on CD-1 mice (body weight approximately 20 g), and the experimental protocol is conducted according to the Animal Care Committee approval.
After review of the medical records provided by the animal supplier facility, mice are observed during 1 week for their acclimation before the experiment.
After administering the treatments as indicated above, blood samples are collected at 5, 15, 30, 45, 120 and 480 minutes after administration and mice are sacrificed. The plasma is separated by centrifugation and conserved −80° C. before processing.
An amount of 400 μL of plasma is dispersed in 1 mL of acetonitrile to precipitate proteins and agitated during 5 minutes with a vortex before placing the suspensions of the sample in an ultrasonic bath for 1 minute. The precipitated proteins are separated by centrifugation (15000 g, 5 minutes at 16° C.) and the supernatant is collected in a microplate for analysis.

[4] = design: species or system CD-1 mice; details: CD-1, mouse, in vivo, po, 200 mg/kg
Protocol: The in vivo study was carried out on CD-1 mice (body weight approximately 20 g), and the experimental protocol is conducted according to the Animal Care Committee approval. After review of the medical records provided by the animal supplier facility, mice are observed during 1 week for their acclimation before the experiment.

HEL cells = test: Cell growth, resazurin fluorescence assay; assay type: cell-based; details: 2 μM, 3 days
Protocol: (§1) Cell growth was followed via the resazurin (alamar blue) fluorescence assay. At day −1, cells were seeded in 100 μL media at a density of 4×10^3 cells/well in 96-well plates and incubated overnight at 37° C. […] Cultures were performed during 3 days after the addition of the drugs. At day 3, Resazurin (0.1 mg/mL, Sigma-Aldrich) was added at 20 μL/well, and plates were incubated for 4 h at 37° C., then fluorescence (Aex=529.5 nm, Aem =582 nm) was measured using ClarioStar™ microplate reader.
(§2) Those supposedly selected cells may be used to test for artemisinin sensitivity before and after encapsulation. This first objective, in addition to checking the sensitivity to artesunate (ARTE), is to test the sensitivity to the complex form (ARTE/Starch Glycolate) as well. This provides information on whether the encapsulation process affects the efficiency of ARTE in vitro. The effects of both drugs on the proliferation of 10 AML cell lines and 1 CML cell line was tested. Both the drug or the drug/Starch Glycolate complex were used at 2 μM, a dose that has been reported to be very efficient at least in two AML cell lines (MV4-11 and MOLM13). The ARTE/Starch Glycolate in water was prepared fresh every time for each experiment. Frozen (−20° C.) ARTE/Starch Glycolate complex was also tested in parallel to fresh ARTE/Starch Glycolate in each experiment, to evaluate stability after freezing. • a.

HL60 cells = test: Cell growth, resazurin fluorescence assay; assay type: cell-based; details: 2 μM, 3 days
Protocol: as §1, §2

ML2 cells = test: Cell growth, resazurin fluorescence assay; assay type: cell-based; details: 2 μM, 3 days
Protocol: as §1, §2

MOLM13 cells = test: Cell growth, resazurin fluorescence assay; assay type: cell-based; details: 2 μM, 3 days
Protocol: as §1, §2

NB4 cells = test: Cell growth, resazurin fluorescence assay; assay type: cell-based; details: 2 μM, 3 days
Protocol: as §1, §2

THP1 cells = test: Cell growth, resazurin fluorescence assay; assay type: cell-based; details: 2 μM, 3 days
Protocol: as §1, §2

U937 cells = test: Cell growth, resazurin fluorescence assay; assay type: cell-based; details: 2 μM, 3 days
Protocol: as §1, §2

K562 cells = test: Cell growth, resazurin fluorescence assay; assay type: cell-based; details: 3 days
Protocol: as §2, with “Cell growth was followed via the resazurin (alamar blue) fluorescence assay. At day −1, cells were seeded in 100 μL media at a density of 4×10^3 cells/well in 96-well plates and incubated overnight at 37° C. […] Cultures were performed during 3 days after the addition of the drugs. At day 3, Resazurin (0.1 mg/mL, Sigma-Aldrich) was added at 20 μL/well, and plates were incubated for 4 h at 37° C., then fluorescence (Aex=529.5 nm, Aem =582 nm) was measured using ClarioStar™ microplate reader. […] Those” for “Those”

KG1 cells = test: Cell growth, resazurin fluorescence assay; assay type: cell-based; details: 3 days
Protocol: as §2, with “Cell growth was followed via the resazurin (alamar blue) fluorescence assay. At day −1, cells were seeded in 100 μL media at a density of 4×10^3 cells/well in 96-well plates and incubated overnight at 37° C. […] Cultures were performed during 3 days after the addition of the drugs. At day 3, Resazurin (0.1 mg/mL, Sigma-Aldrich) was added at 20 μL/well, and plates were incubated for 4 h at 37° C., then fluorescence (Aex=529.5 nm, Aem =582 nm) was measured using ClarioStar™ microplate reader. […] Those” for “Those”

MV4-11 cells = test: Cell growth, resazurin fluorescence assay; assay type: cell-based; details: 3 days
Protocol: as §2, with “Cell growth was followed via the resazurin (alamar blue) fluorescence assay. At day −1, cells were seeded in 100 μL media at a density of 4×10^3 cells/well in 96-well plates and incubated overnight at 37° C. […] Cultures were performed during 3 days after the addition of the drugs. At day 3, Resazurin (0.1 mg/mL, Sigma-Aldrich) was added at 20 μL/well, and plates were incubated for 4 h at 37° C., then fluorescence (Aex=529.5 nm, Aem =582 nm) was measured using ClarioStar™ microplate reader. […] Those” for “Those”

KG1a cells = test: Cell growth, resazurin fluorescence assay; assay type: cell-based; details: 3 days
Protocol: Cell growth was followed via the resazurin (alamar blue) fluorescence assay. At day −1, cells were seeded in 100 μL media at a density of 4×10^3 cells/well in 96-well plates and incubated overnight at 37° C. […] Cultures were performed during 3 days after the addition of the drugs. At day 3, Resazurin (0.1 mg/mL, Sigma-Aldrich) was added at 20 μL/well, and plates were incubated for 4 h at 37° C., then fluorescence (Aex=529.5 nm, Aem =582 nm) was measured using ClarioStar™ microplate reader. […] Those supposedly selected cells may be used to test for artemisinin sensitivity before and after encapsulation. This first objective, in addition to checking the sensitivity to artesunate (ARTE), is to test the sensitivity to the complex form (ARTE/Starch Glycolate) as well. This provides information on whether the encapsulation process affects the efficiency of ARTE in vitro. The effects of both drugs on the proliferation of 10 AML cell lines and 1 CML cell line was tested. […] ARTE.SG and ARTE have the Same IC50 in 4 Representative Leukemic Cell Lines To further confirm the equivalent efficiency between ARTE and ARTE.SG, the IC50 of both drugs on 4 leukemic cell lines that cover the 3 sensitivity groups described above was calculated.

[5] = according to the DrugBank; cited from earlier work

Structure (SMILES): CC1(C)S[C@@H]2[C@H](NC(=O)[C@H](N)c3ccc(O)cc3)C(=O)N2[C@H]1C(=O)O [Amoxicillin]
- antibacterial effect by quantitative culture or quantitative PCR (Experiment 1) (H. pylori PremSS1 strain; 7 days of treatment, absence of proton pump inhibitor): no antibacterial effect
- antibacterial effect by quantitative culture or quantitative PCR (Experiment 2) (H. pylori PremSS1 strain; 14 days, with Pantoprazole 150 mg/kg): certain antibacterial effect

- appearance of the solution in SGF after 12 h [1]: a precipitation is formed at the bottom
- solubility in water [2]: only slightly soluble
Structure (SMILES): C[C@H]1[C@H](OC(=O)CCC(=O)[O-])O[C@@H]2O[C@@]3(C)CC[C@H]4[C@H](C)CC[C@@H]1[C@@]24OO3.[Na+] [artesunate sodium salt form]
- appearance of the solution in SGF after 2 hours [1]: cloudy, but no evident precipitation is observed
- bacterial concentration after incubation (reduction from 10^6) (E. coli): 10^4 CFU/mL

- appearance of the solution in SGF after 12 h [1]: no change
- MIC50 (H. pylori strains): 20 µg/mL (≈ 52 µM)
- MIC90 (H. pylori strains): 80 µg/mL (≈ 208 µM)
- AUC Area under curve ([3]; iv, 3.5 mg/kg): 507 ± 102 ng·min/mL
- Cl Clearance ([3]; iv, 3.5 mg/kg): 415.8 ± 23.9 L/h/kg
- Tmax Maximum peak time ([3]; iv, 3.5 mg/kg): 15 min
- T½ Apparent plasma half-life ([3]; iv, 3.5 mg/kg): 12 ± 2 min
- Cl Clearance ([3]; po, 200 mg/kg): 1457.7 ± 511.6 L/h/kg
- Oral Bioavailability F ([3]; po, 200 mg/kg): 8 ± 4%
- time to maximum concentration of DHA (prostate section, printed 'in the brain') [4]: 30 min
- IC50 (K562 cells; Homo sapiens, K562, 72 h, preliminary): ~8000 nM
- IC50 (MV4-11 cells; Homo sapiens, MV4-11, 72 h, preliminary): 250 to 500 nM
Structure (SMILES): C[C@@H]1CCC2[C@@H](C)[C@H](OC(=O)CCC(=O)O)OC3O[C@@]4(C)CCC1[C@]32OO4 (stereo partly shown) [untreated artesunate, Artesunate]
- appearance of the solution in SGF after 2 hours [1]: milky appearance, with an important precipitation at the bottom of vial
- bacterial concentration after incubation (reduction from 10^6) (E. coli): no significant change
- sensitivity group (HEL cells): moderately sensitive
- sensitivity group (HL60 cells): moderately sensitive
- sensitivity group (ML2 cells): moderately sensitive
- sensitivity group (MOLM13 cells): highly sensitive
- sensitivity group (NB4 cells): highly sensitive
- sensitivity group (THP1 cells): highly sensitive
- sensitivity group (U937 cells): moderately sensitive
- sensitivity group (K562 cells; 2 μM): low sensitivity
- sensitivity group (KG1 cells; 2 μM): moderately sensitive
- IC50 (KG1 cells; Homo sapiens, KG-1, 72 h, preliminary): ~1000 nM
- sensitivity group (MV4-11 cells; 2 μM): highly sensitive
- sensitivity group (KG1a cells; 2 μM): low sensitivity
- IC50 (KG1a cells; Homo sapiens, KG-1a, 72 h, preliminary): ~2000 nM
- water solubility [5]: 680 µg/mL (≈ 1770 µM)
